Measurements reported in patent US9802974B2, “Synthesis of diverse glycosylphosphatidylinositol glycans from Toxoplasma gondii and their application as vaccines and diagnostics” (Max-Planck-Gesellschaft zur Förderung der Wissenschaften …, priority 2012, dated 2017).

Tested on: T. gondii tachyzoites
Assay: Immunofluorescence confocal microscopy of T. gondii tachyzoites with serum of mice immunized with the compound 4-CRM197 conjugate
Type: binding, Toxoplasma gondii
Details: paraformaldehyde-fixed tachyzoites, pooled serum from immunized mice, FIG. 13
Procedure: Full circle in (C) indicates the apical and half circle the basolateral end of the parasite (white bar=5 μm).
Extracellular tachyzoites collected from cell culture supernatants were fixed with 4% (w/v) paraformaldehyde in PBS for 30 min. Cells were washed three times with PBS, and incubated for 1 h with mice sera raised against compounds 3 or 4 diluted to 100 in PBS, 10% BSA. Cells were washed three times with PBS before incubated for 1 h with secondary FITC-conjugated anti-mouse immunoglobulin antibody (DakoCytomation, Glostrup) containing 10% BSA and washed finally three times with PBS. After three final washes with PBS, aliquot were spotted on microscope slides followed by a glass cover slides, mounted in Fluoroprep (Dako) and recorded by using a 100× Plan-NeoFluar oil objective lens with NA 1.30 using an Axiophot microscop (Zeiss).
In contrast, antibodies binding to the parasite in sera of mice before immunization could not be detected. […] Tachyzoites secrete factors for attachment, invasion and formation of the parasitophorous vacuole, which is surrounding and protecting the parasite inside the host cell from endocytosis, in a regulated fashion from the apical region. […]

## 6-O-(aminoethyl phosphono)-α-D-mannopyranosyl-(1→2)-α-D-mannopyranosyl-(1→6)-4-O-(α-D-glucopyranosyl-(1→4)-2-deoxy-2-acetamido-β-D-galactopyranosyl)-α-D-manno-pyranosyl-(1→4)-2-amino-2-deoxy-α-D-glucopyranosyl-(1→6)-1-O-(thiohexyl phosphono)-D-myo-inositol [compound 4]
  recognition of the natural GPI antigen on the T. gondii parasite by antibodies raised against the substance: bound to the surface of the parasite
